Literature values as cited in patent US7186826B2, “Phosphorus-containing compounds and uses thereof” (ARIAD Gene Therapeutics, Inc., priority 2002, dated 2007).

Settings: see WO 03/022807 and 99/15530

For `CO[C@H]1C[C@@H]2CC[C@@H](C)[C@@](O)(O2)C(=O)C(=O)N2CCCC[C@H]2C(=O)O[C@H]([C@H](C)C[C@@H]2CC[C@H](n3cnnn3)[C@H](OC)C2)CC(=O)[C@H](C)/C=C(\C)[C@@H](O)[C@@H](OC)C(=O)[C@H](C)C[C@H](C)/C=C/C=C/C=C/1C` [ABT-578], the biological half-life is listed as “shortened”.
